Measured values: patent US9533973B2, “Allosteric modulators of 5-hydroxytryptamine 2C receptor (5-HT2CR)” (THE BOARD OF REGENTS OF THE UNIVERSITY OF TEXAS SYSTEM, priority 2011, dated 2017)

What was measured:
5-HT2AR = target: T1, 5-HT2AR (Homo sapiens, UniProt P28223); test: 5-HT induced intracellular calcium (Cai++) release assay in live 5-HT2AR-CHO cells; assay type: cell-based; conditions: compound alone or in the presence of 5-HT
T1 construct: expressed in transfected cells; host or cells: CHO cells (5-HT2AR—CHO)
T1 sequence (P28223 whole entry): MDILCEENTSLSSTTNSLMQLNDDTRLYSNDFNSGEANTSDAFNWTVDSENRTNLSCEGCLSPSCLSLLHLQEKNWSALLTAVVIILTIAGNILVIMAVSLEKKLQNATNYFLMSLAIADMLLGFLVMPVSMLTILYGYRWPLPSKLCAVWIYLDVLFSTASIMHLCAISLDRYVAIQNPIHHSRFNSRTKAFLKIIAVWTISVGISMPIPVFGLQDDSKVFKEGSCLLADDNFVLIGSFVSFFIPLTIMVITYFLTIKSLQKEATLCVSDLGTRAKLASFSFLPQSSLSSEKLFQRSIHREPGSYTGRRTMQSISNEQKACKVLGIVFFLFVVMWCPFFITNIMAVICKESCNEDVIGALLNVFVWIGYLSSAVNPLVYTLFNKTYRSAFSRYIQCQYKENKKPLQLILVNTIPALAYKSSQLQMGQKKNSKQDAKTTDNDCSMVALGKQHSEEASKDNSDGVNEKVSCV
Procedure: Selected results for the biological characterization of the synthesized compounds can be found in Ding et al., ACS Chem. Neurosci., 3, 538-545, 2012, and also described herein. The biological activity is assessed using an intracellular calcium (Cai^++) release assay. The best-characterized intracellular signaling pathway of the 5-HT2CR is the activation of phospholipase C (PLCβ) via Gαq/11 proteins and the production of diacylglycerol (DAG) and inositol-1,4,5-trisphosphate (IP3), leading to increased Cai^++ release from intracellular stores (Berg et al., Neuropharmacology 55, 969-76, 2008). Functional characterization of our synthetic PNU-69176E (CYD-1-78-2) and its diastereomer CYD-1-78-1 was determined by utilizing an Cai^++ release assay in live cells in which Cai^++ levels can be regarded as an outcome measure of activation of the 5-HT2CR signaling pathway (Berg et al., Neuropharmacology 55, 969-76, 2008). […]
Changes in Cai^++ levels were determined using the calcium sensitive dye Calcium 4 (FLIPR No-wash kit, Molecular Devices, Sunnyvale, Calif., part #R8142). […] Fluorescence (λex=485 nm, λem=525 nm) was measured with a FlexStation3 (Molecular Devices). […] Addition of 20 μL of 5× concentrated tested compound occurred at 17 sec and fluorescence was recorded every 1.7 sec for 90 sec to determine any innate agonist activity. […]

5-HT2CR = target: T2, 5-HT2CR (Homo sapiens, UniProt P28335); test: 5-HT induced intracellular calcium (Cai++) release assay in live 5-HT2CR-CHO cells; assay type: cell-based; parameters: expressed in transfected cells
T2 sequence (P28335 33-458): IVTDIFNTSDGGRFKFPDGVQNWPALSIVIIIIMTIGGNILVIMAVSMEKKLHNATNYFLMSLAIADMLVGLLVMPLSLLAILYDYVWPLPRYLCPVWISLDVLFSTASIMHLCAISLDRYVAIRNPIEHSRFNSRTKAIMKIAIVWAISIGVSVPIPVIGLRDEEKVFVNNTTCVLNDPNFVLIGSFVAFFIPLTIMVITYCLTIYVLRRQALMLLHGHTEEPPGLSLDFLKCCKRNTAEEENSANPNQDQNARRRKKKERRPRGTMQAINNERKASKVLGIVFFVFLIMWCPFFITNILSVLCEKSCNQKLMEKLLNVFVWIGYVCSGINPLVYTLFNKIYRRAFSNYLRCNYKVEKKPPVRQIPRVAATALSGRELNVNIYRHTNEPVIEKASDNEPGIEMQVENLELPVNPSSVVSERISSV
Procedure: Selected results for the biological characterization of the synthesized compounds can be found in Ding et al., ACS Chem. Neurosci., 3, 538-545, 2012, and also described herein. The biological activity is assessed using an intracellular calcium (Cai^++) release assay. The best-characterized intracellular signaling pathway of the 5-HT2CR is the activation of phospholipase C (PLCβ) via Gαq/11 proteins and the production of diacylglycerol (DAG) and inositol-1,4,5-trisphosphate (IP3), leading to increased Cai^++ release from intracellular stores (Berg et al., Neuropharmacology 55, 969-76, 2008). Functional characterization of our synthetic PNU-69176E (CYD-1-78-2) and its diastereomer CYD-1-78-1 was determined by utilizing an Cai^++ release assay in live cells in which Cai^++ levels can be regarded as an outcome measure of activation of the 5-HT2CR signaling pathway (Berg et al., Neuropharmacology 55, 969-76, 2008). […] In addition, 1 nM of compound CYD-1-78-2 enhanced the Cai^++ response at low concentrations of 5-HT [10^11-3×10^−10 M; F(15,55)=16.73, p<0.01; FIG. 2]. […] Neither compound CYD-1-78-2 [F(10,68)=0.81, n.s.] nor the diastereomer CYD-1-78-1 [F(10,34)=0.76, n.s.] in concentrations up to 10^−5 M induced Cai^++ release in the 5-HT2CR—CHO cells in the absence of 5-HT (FIG. 3). This profile for compounds CYD-1-78-2 and −1 in 5-HT2CR—CHO cells was distinguished from that seen in 5-HT2AR—CHO cells in which neither compound alone or in the presence of 5-HT (compound CYD-1-78-1, F(10,43)=0.78; compound CYD-1-78-2, F(10,55)=1.27; FIG. 4) altered Cai^++ release (Ding et al., ACS Chem. Neurosci. 3, 538-545, 2012).
The Chinese hamster ovary (CHO) cell line stably transfected with 5-HT2CR was a generous gift of K. Berg and W. Clarke (University of Texas Health Science Center, San Antonio) (K. A. Berg, W. P. Clarke, C. Sailstad, A. Saltzman and S. Maayani, Mol. Pharmacol. 1994, 46 (3), 477-484; Ding et al., ACS Chem. Neurosci. 3, 538-545, 2012). Cells were grown at 37° C., 5% CO2 and 85% relative humidity in GlutaMax α-MEM (Invitrogen, Carlsbad Calif.), 5% fetal bovine serum (Atlanta Biologicals, Atlanta Ga.), 100 μg/mL hygromycin (Mediatech, Manassas Va.) and were passaged when they reached 80% confluence.
Changes in Cai^++ levels were determined using the calcium sensitive dye Calcium 4 (FLIPR No-wash kit, Molecular Devices, Sunnyvale, Calif., part #R8142). Cells were plated in serum-replete medium at 20,000 cells/well in black-sided, clear bottom 96-well tissue culture plates and were fed ˜24 hrs later with serum-free medium. Following overnight incubation, medium was removed and replaced with 40 μL of fresh serum-free medium plus 40 μL Calcium 4 dye solution in Hank's balanced saline solution (HBSS, without CaCl2 or MgCl2) supplemented with 2.5 mM water soluble probenicid (Invitrogen) to inhibit extracellular transport of the dye. Plates were incubated for 60 min at 37° C. and 60 min at room temperature in the dark. Fluorescence (λex=485 nm, λem=525 nm) was measured with a FlexStation3 (Molecular Devices). A baseline was established for each well during the initial segment of each run. Addition of 20 μL of 5× concentrated tested compound occurred at 17 sec and fluorescence was recorded every 1.7 sec for 90 sec to determine any innate agonist activity. This first round of 90 sec recordings provided a 20 min preincubation period. […] Maximum peak height was determined by the FlexStation software (SoftMax Pro 5.2) for each well and was normalized to vehicle control.

CCCCCCCCCCC[C@@H]1CCN[C@H](C(=O)N[C@@H]([C@H]2O[C@H](SC)[C@H](O)[C@@H](O)[C@H]2O)[C@H](C)Cl)C1.Cl [CYD-1-78-2]
alteration of Cai++ release in 5-HT2AR-CHO cells (5-HT2AR): neither
Cai++ release induced by 0.3 nM 5-HT in presence of compound (5-HT2CR; 0.3 nM 5-HT (~EC20) alone gives 23.9%, 5-HTmax determined at 1 μM 5-HT): 48.5 % of 5-HTmax
effect on Cai++ release induced by 0.3 nM 5-HT (5-HT2CR; 0.3 nM 5-HT, 5-HT2CR-CHO cells): potentiated
concentrations that significantly enhanced Cai++ release above that of 0.3 nM 5-HT alone (5-HT2CR; 0.3 nM 5-HT, Dunnett's, p<0.05): 10^−13-10^−7 M
effect of 1 nM compound on Cai++ response at low concentrations of 5-HT (5-HT2CR; 1 nM compound, 5-HT 10^11-3×10^−10 M): enhanced
effect on Cai++ release at the highest concentration utilized (5-HT2CR; 10^−5 M compound, 0.3 nM 5-HT, p<0.05): reduced
Cai++ release in the absence of 5-HT (intrinsic agonist activity) (5-HT2CR; concentrations up to 10^−5 M, no 5-HT): n.s. and did not detect intrinsic agonist activity
